From the NIST ThermoML archive (doi:10.1021/je4009238)
± gives the expanded uncertainty stated by the source.

What was measured:
[1] = xn = mol fraction of the nth substance listed; conditions: 101 kPa, Liquid
[2] = refractive index (Na D-line) (dimensionless); xn = mol fraction of the nth substance listed; conditions: 101 kPa, Liquid

CN(C)C=O [dimethylformamide] + CCn1cc[n+](C)c1.[Cl-]
x2 = 0
Conditions	mass density, [1] [kg/m3]	refractive index, [2]	viscosity, [1] [mPa·s]
288.15 K	953.79 ± 0.83	1.43304 ± 0.00063	0.936 ± 0.11
298.15 K	944.26 ± 0.89	1.42858 ± 0.00063	0.825 ± 0.1
308.15 K	934.69 ± 0.95	1.42381 ± 0.00063	0.736 ± 0.098
318.15 K	925.16 ± 1	1.41909 ± 0.00063	0.665 ± 0.095

CN(C)C=O [dimethylformamide] + CCCCCCn1cc[n+](C)c1.[Cl-]
x2 = 0
Conditions	mass density, [1] [kg/m3]	refractive index, [2]	viscosity, [1] [mPa·s]
288.15 K	953.79 ± 0.83	1.43304 ± 0.0012	0.936 ± 0.22
298.15 K	944.26 ± 0.89	1.42858 ± 0.0012	0.825 ± 0.21
308.15 K	934.69 ± 0.95	1.42381 ± 0.0012	0.736 ± 0.2
318.15 K	925.16 ± 1	1.41909 ± 0.0012	0.665 ± 0.19

CN(C)C=O [dimethylformamide] + CCCCn1cc[n+](C)c1.[Cl-]
x2 = 0
Conditions	mass density, [1] [kg/m3]	refractive index, [2]	viscosity, [1] [mPa·s]
288.15 K	953.79 ± 0.83	1.43304 ± 0.00063	0.936 ± 0.11
298.15 K	944.26 ± 0.89	1.42858 ± 0.00063	0.825 ± 0.1
308.15 K	934.69 ± 0.95	1.42381 ± 0.00063	0.736 ± 0.098
318.15 K	925.16 ± 1	1.41909 ± 0.00063	0.665 ± 0.095

CCCCCCCC[n+]1ccn(C)c1.[Cl-] [1-methyl-3-octylimidazolium chloride] + CN(C)C=O
Conditions	mass density, [1] [kg/m3]	refractive index, [2]	viscosity, [1] [mPa·s]
288.15 K, x1 = 0.0306	962.61 ± 10	1.4392 ± 0.01	1.617 ± 0.21
288.15 K, x1 = 0.0647	970.04 ± 10	1.44535 ± 0.01	2.007 ± 0.25
288.15 K, x1 = 0.1021	976.96 ± 10	1.4504 ± 0.01	2.763 ± 0.33
288.15 K, x1 = 0.1457	983.52 ± 10	1.45598 ± 0.01	4.132 ± 0.48
288.15 K, x1 = 0.1939	989.54 ± 10	1.46074 ± 0.01	5.958 ± 0.68
288.15 K, x1 = 0.2496	995.13 ± 10	1.46531 ± 0.01	8.425 ± 0.95
288.15 K, x1 = 0.3143	1000.4 ± 10	1.46967 ± 0.01	13.28 ± 1.5
288.15 K, x1 = 0.39	1005.26 ± 10	1.47407 ± 0.01	20.46 ± 2.3
288.15 K, x1 = 0.4809	1009.79 ± 10	1.47791 ± 0.01	34.23 ± 3.8
288.15 K, x1 = 0.5908	1013.76 ± 10	1.48169 ± 0.01	60.63 ± 6.5
288.15 K, x1 = 0.7259	1017.15 ± 10	1.48534 ± 0.01	122.33 ± 25
288.15 K, x1 = 1	1022.06 ± 10	1.49008 ± 0.01	–
298.15 K, x1 = 0.0306	953.41 ± 10	1.43459 ± 0.01	1.348 ± 0.18
298.15 K, x1 = 0.0647	961.21 ± 10	1.44113 ± 0.01	1.629 ± 0.21
298.15 K, x1 = 0.1021	968.34 ± 10	1.44613 ± 0.01	2.262 ± 0.28
298.15 K, x1 = 0.1457	975.24 ± 10	1.45203 ± 0.01	3.234 ± 0.38
298.15 K, x1 = 0.1939	981.46 ± 10	1.45641 ± 0.01	4.582 ± 0.53
298.15 K, x1 = 0.2496	987.32 ± 10	1.46173 ± 0.01	6.215 ± 0.71
298.15 K, x1 = 0.3143	992.89 ± 10	1.46588 ± 0.01	9.498 ± 1.1
298.15 K, x1 = 0.39	997.98 ± 10	1.47066 ± 0.01	14.03 ± 1.6
298.15 K, x1 = 0.4809	1002.82 ± 10	1.47429 ± 0.01	22.18 ± 2.5
298.15 K, x1 = 0.5908	1006.97 ± 10	1.47835 ± 0.01	37.33 ± 4.1
298.15 K, x1 = 0.7259	1010.6 ± 10	1.48212 ± 0.01	69.31 ± 8.3
298.15 K, x1 = 1	1015.97 ± 10	1.48709 ± 0.01	–
308.15 K, x1 = 0.0306	944.19 ± 10	1.43007 ± 0.01	1.172 ± 0.16
308.15 K, x1 = 0.0647	952.27 ± 10	1.4361 ± 0.01	1.448 ± 0.19
308.15 K, x1 = 0.1021	959.68 ± 10	1.44189 ± 0.01	1.909 ± 0.24
308.15 K, x1 = 0.1457	966.87 ± 10	1.44766 ± 0.01	2.615 ± 0.32
308.15 K, x1 = 0.1939	973.37 ± 10	1.45241 ± 0.01	3.636 ± 0.43
308.15 K, x1 = 0.2496	979.5 ± 10	1.45731 ± 0.01	4.753 ± 0.55
308.15 K, x1 = 0.3143	985.36 ± 10	1.46212 ± 0.01	7.07 ± 0.8
308.15 K, x1 = 0.39	990.69 ± 10	1.46672 ± 0.01	10.12 ± 1.1
308.15 K, x1 = 0.4809	995.8 ± 10	1.47089 ± 0.01	15.15 ± 1.7
308.15 K, x1 = 0.5908	1000.19 ± 10	1.47504 ± 0.01	24.36 ± 2.7
308.15 K, x1 = 0.7259	1004.44 ± 10	1.47897 ± 0.01	43.04 ± 4.8
308.15 K, x1 = 1	1009.8 ± 10	1.48413 ± 0.01	155.03 ± 38
318.15 K, x1 = 0.0306	934.98 ± 10	1.42562 ± 0.01	1.013 ± 0.14
318.15 K, x1 = 0.0647	943.27 ± 10	1.43143 ± 0.01	1.289 ± 0.17
318.15 K, x1 = 0.1021	951.06 ± 10	1.438 ± 0.01	1.661 ± 0.21
318.15 K, x1 = 0.1457	958.48 ± 10	1.44342 ± 0.01	2.182 ± 0.27
318.15 K, x1 = 0.1939	965.3 ± 10	1.44849 ± 0.01	2.97 ± 0.35
318.15 K, x1 = 0.2496	971.71 ± 10	1.45347 ± 0.01	3.753 ± 0.44
318.15 K, x1 = 0.3143	977.79 ± 10	1.4586 ± 0.01	5.427 ± 0.62
318.15 K, x1 = 0.39	983.45 ± 10	1.46306 ± 0.01	7.536 ± 0.85
318.15 K, x1 = 0.4809	988.76 ± 10	1.46765 ± 0.01	10.77 ± 1.2
318.15 K, x1 = 0.5908	993.39 ± 10	1.47179 ± 0.01	16.68 ± 1.9
318.15 K, x1 = 0.7259	997.95 ± 10	1.47589 ± 0.01	28.25 ± 3.1
318.15 K, x1 = 1	1003.62 ± 10	1.48122 ± 0.01	65.95 ± 7.6
